Assay in all cases: DTP human tumour cell line panel, 48 h
Assay [1] concerns KM12 colon.
Assay [2] relates to HOP-92 NSCLC.
For assay [3], the system named is SN12C renal.
The subject of assay [4] is LOX IMVI melanoma.
Assay [5] deals with TK-10 renal.
For assay [6], the system named is RXF 393 renal.
Assay [7] concerns HL-60(TB) leukemia.
For assay [8], the system named is MDA-N.
In assay [9] the test system is SF-295 CNS.
Assay [10] relates to SF-268 CNS.
For assay [11], the system named is A498 renal.
Assay [12] concerns SK-MEL-2 melanoma.
Assay [13] deals with SK-MEL-5 melanoma.
Assay [14] concerns SK-MEL-28 melanoma.
The test system of assay [15] is SW-620 colon.
For assay [16], the system named is EKVX NSCLC.
Assay [17] concerns OVCAR-3 ovarian.
Assay [18] deals with RPMI-8226 leukemia.

A word on the TGI: it is the concentration at which net growth stops. A lower TGI goes with more potent growth arrest. For orientation: GI50 means the concentration that inhibits growth by half.

SMILES strings stand for the structures. Several values for one entry are separate records, joined by “and”; a condition that tells them apart may be missing. Identical values can stand only once.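 Growth conditions: 96-well plates. Treatment: test compound, 48 hours, 5 concentrations. Analysis: linear interpolation between bracketing concentrations; unreached endpoints set to highest concentration. GI50: concentration for 50% inhibition of growth. Definition used: TGI = concentration required for complete inhibition of growth.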 Where a SMILES comes first, the peptide text is derived from it. The star is where a group is joined. Cbz = O=C(OCc1ccccc1)*; Boc = CC(C)(C)OC(=O)*; OBn = c1ccc(CO*)cc1 Where only a bound is given, the exact number is not on record here.

Turning to `Cc1c(O)c(OC2OC(CO)C(O)C(O)C2O)cc2c1CC[C@@H]1C2(C)C(=O)C[C@]2(C)[C@@H]([C@@](C)(O)C(O)CCC(C)(C)O)[C@H](O)C[C@@]12C` (some centres not stated), the total growth inhibition concentration (TGI) in assay [1], in assay [2], in assay [3], in assay [4], in assay [5] and in assay [6] was > 100 µM each time. In addition, the total growth inhibition concentration (TGI) in assay [7], in [8], in assay [9], in assay [10], in [11] and in assay [12] was > 100 µM throughout. For the same compound, the TGI in [13], in assay [14], in [15], in assay [16] and in assay [17] was > 100 µM each time.
On to `COC(=O)C(CCCCNC(=O)OCc1ccccc1)NC(=O)C(CCC(=O)OCc1ccccc1)NC(=O)OC(C)(C)C` (configuration not stated) (Boc-Glu(OBn)-Lys(Cbz)-OMe; configuration not given here), for which the TGI in assay [18], in [1], in assay [2], in [3], in [4] and in [5] was > 100 µM throughout. The TGI in assay [6] was > 100 µM; in assay [7] it was > 100 µM; in [8], > 100 µM; in assay [9] it was > 100 µM; in [10] it was > 100 µM; in [11] it was 66.5 µM. For the same compound, the TGI in assay [13], in assay [14], in [15], in assay [16] and in assay [17] was > 100 µM throughout.
Take `[N-]=[N+]=NC1=C(N=[N+]=[N-])c2cccc3cccc(c23)C1=O`: the concentration for total growth inhibition (TGI) in [18], in assay [1], in assay [2], in [3], in assay [4] and in assay [5] was > 100 µM in each case. The total growth inhibition concentration (TGI) in assay [6], in [8], in assay [9], in assay [10], in [11] and in assay [12] was > 100 µM each time. Moreover, the concentration for total growth inhibition (TGI) in [13], in assay [15], in assay [16] and in [17] was > 100 µM in each case.
For `CC1C2CC(CC2=O)C1(C)C` (configuration not stated), the TGI in [1], in assay [2], in assay [3], in [5], in assay [6] and in [7] was > 100 µM each time. Also, the total growth inhibition concentration (TGI) in [8], in [9], in [10], in assay [11], in assay [13] and in assay [14] was > 100 µM each time. For the same compound, the concentration for total growth inhibition (TGI) in assay [15], in assay [16] and in assay [17] was > 100 µM in each case.
For `COc1cc(-c2c(C(C)=O)c(-c3ccccc3)n(C3OC(COC(C)=O)C(OC(C)=O)C(OC(C)=O)C3OC(C)=O)c(=S)c2C#N)ccc1O` (configuration not stated), the GI50 in assay [18] is 34.5 µM; in assay [17], 44.1 µM and > 100 µM. The concentration for total growth inhibition (TGI) in assay [18], in [1], in assay [2], in [3], in assay [4] and in [6] was > 100 µM in each case. In addition, the concentration for total growth inhibition (TGI) in assay [8], in assay [9], in assay [10], in assay [11], in assay [13] and in assay [14] was > 100 µM in each case. Also, the total growth inhibition concentration (TGI) in assay [15], in assay [16] and in assay [17] was > 100 µM each time.
Regarding `CSC(=S)Nc1cc(C)ccn1`, the TGI in assay [18], in assay [1], in assay [2], in assay [3], in assay [4] and in [5] was > 100 µM in each case. The concentration for total growth inhibition (TGI) in assay [6], in assay [7], in assay [8], in [9], in assay [10] and in [12] was > 100 µM throughout. Besides, the concentration for total growth inhibition (TGI) in assay [13] was 46.5 µM; in [14] it was > 100 µM; in assay [15] it was > 100 µM; in assay [16] it was > 100 µM; in assay [17] it was > 100 µM.
For the compound `COc1ccc(-c2c(C(=O)Nc3ccccc3)c(-c3ccccc3)n(C3OC(CO)C(O)C(O)C3O)c(=S)c2C#N)cc1` (configuration not stated), the total growth inhibition concentration (TGI) in assay [18], in assay [1], in assay [2], in assay [3], in assay [4] and in assay [6] was > 100 µM throughout. The TGI in assay [7], in assay [8], in assay [9], in [10], in assay [11] and in [13] was > 100 µM each time. In addition, the TGI in assay [14], in assay [15], in [16] and in assay [17] was > 100 µM each time.
Consider `NC(=S)NS(=O)(=O)c1ccc(F)cc1`, for which the total growth inhibition concentration (TGI) in assay [18], in [1], in [2], in [3], in assay [4] and in assay [5] was > 100 µM in each case. The TGI in [6], in assay [7], in [8], in assay [9], in [10] and in assay [12] was > 100 µM throughout. The TGI in [13], in assay [14], in [15], in assay [16] and in assay [17] was > 100 µM in each case.

(Values after PubChem BioAssay (NCI).)
